Drawing on US9878986B2, “Compounds for selective histone deacetylase inhibitors, and pharmaceutical composition comprising the same” (CHONG KUN DANG PHARMACEUTICAL CORP., priority 2013, dated 2018), this text covers IC50 for 23 compounds.

Structures are written as SMILES.

For assay [1], the target named is HDAC1 (Homo sapiens, UniProt Q13547). Put plainly: Test of HDAC activities, HDAC1 Fluorimetric Drug Discovery Assay Kit. Type of assay: biochemical. Details: purchased Enzolifesciences BML-AK511. The following applies: samples at 100, 1000, 10000 nM; 37° C. 60 minutes; fluorescence Ex 390, Em 460; read-out: HDAC inhibitory activities, HDAC1. The method, boiled down:
(§1)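 HDAC1 tested at 100, 1000 and 10000 nM; recombinant human HDAC6 at 0.1, 1, 10, 100 and 1000 nM. Reaction 60 min at 37° C, then developer for 30 min at 37° C; fluorescence read at Ex 390/Em 460.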

Assay [2] deals with T1, HDAC 6 (Homo sapiens, UniProt Q9UBN7).
T1 sequence (Q9UBN7 1-1215): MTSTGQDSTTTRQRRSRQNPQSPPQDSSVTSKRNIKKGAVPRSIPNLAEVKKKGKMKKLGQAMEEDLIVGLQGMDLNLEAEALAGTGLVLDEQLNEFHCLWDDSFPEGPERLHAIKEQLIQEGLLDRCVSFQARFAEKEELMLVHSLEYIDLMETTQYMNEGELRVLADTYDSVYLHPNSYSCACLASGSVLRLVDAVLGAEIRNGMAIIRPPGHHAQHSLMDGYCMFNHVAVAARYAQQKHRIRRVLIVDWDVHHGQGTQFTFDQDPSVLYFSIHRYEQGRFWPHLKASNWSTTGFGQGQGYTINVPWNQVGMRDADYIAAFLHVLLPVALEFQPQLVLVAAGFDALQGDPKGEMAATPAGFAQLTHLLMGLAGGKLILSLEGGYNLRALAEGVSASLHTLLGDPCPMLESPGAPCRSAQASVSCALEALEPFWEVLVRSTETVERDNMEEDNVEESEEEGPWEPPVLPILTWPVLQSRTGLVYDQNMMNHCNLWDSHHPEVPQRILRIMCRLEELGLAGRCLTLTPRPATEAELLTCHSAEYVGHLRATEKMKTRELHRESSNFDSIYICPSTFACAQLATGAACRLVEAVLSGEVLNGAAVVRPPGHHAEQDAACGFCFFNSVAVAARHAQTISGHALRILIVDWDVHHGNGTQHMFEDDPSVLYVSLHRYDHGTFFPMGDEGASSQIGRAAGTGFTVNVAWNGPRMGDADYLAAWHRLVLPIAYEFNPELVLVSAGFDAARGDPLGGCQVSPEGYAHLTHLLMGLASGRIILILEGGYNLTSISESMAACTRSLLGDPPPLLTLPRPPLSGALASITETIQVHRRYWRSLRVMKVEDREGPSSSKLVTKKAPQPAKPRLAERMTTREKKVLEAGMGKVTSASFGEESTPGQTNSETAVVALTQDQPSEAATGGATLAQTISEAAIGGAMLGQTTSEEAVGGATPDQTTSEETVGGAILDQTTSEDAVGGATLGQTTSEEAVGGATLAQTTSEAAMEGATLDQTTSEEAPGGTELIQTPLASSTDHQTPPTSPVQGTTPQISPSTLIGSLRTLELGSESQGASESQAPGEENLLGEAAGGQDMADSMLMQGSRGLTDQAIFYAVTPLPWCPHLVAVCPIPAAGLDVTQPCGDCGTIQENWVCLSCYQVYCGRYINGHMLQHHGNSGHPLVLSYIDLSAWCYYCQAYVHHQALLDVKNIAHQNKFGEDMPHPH
As to the kind of experiment: Test of HDAC activities, HDAC6 (fluorimetric). The class given is biochemical. Details: purchased Calbiochem 382180. Particulars: samples at 0.1, 1, 10, 100, 1000 nM; 37° C. 60 minutes; fluorescence Ex 390, Em 460; read-out: HDAC inhibitory activities, HDAC6. The method, boiled down: as §1

Sequence of HDAC1 (Q13547 whole entry): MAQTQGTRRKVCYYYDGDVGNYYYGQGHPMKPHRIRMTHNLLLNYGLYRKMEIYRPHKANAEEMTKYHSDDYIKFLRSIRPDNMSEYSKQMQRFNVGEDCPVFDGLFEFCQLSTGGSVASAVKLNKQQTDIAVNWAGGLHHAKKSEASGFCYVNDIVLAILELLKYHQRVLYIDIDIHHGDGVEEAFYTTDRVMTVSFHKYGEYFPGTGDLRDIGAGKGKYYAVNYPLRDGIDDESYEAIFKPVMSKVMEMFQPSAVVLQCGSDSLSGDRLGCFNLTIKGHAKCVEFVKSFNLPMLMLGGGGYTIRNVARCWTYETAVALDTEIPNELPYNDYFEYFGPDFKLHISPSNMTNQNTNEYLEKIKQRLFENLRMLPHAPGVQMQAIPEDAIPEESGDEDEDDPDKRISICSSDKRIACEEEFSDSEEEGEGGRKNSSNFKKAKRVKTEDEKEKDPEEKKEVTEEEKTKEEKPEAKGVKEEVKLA

Take `O=C(NO)c1ccc(CN(C(=O)N2CC[C@@H](F)C2)c2cccc(C(F)(F)F)c2)cc1` [Compound 495, (R)-3-fluoro-N-(4-(hydroxycarbamoyl)benzyl)-N-(3-(trifluoromethyl)phenyl)pyrrolidine-1-carboxamide]: the IC50 in assay [1] amounted to 3330 nM; in assay [2] it was 11 nM.
In the same order, the values of `O=C(NO)c1ccc(CN(C(=O)N2CC[C@H](F)C2)c2cccc(C(F)(F)F)c2)cc1` [Compound 496, (S)-3-fluoro-N-(4-(hydroxycarbamoyl)benzyl)-N-(3-(trifluoromethyl)phenyl)pyrrolidine-1-carboxamide] are 1120 nM and 1 nM.
For `O=C(NO)c1ccc(CN(C(=O)N2CCC[C@@H]2CO)c2cccc(C(F)(F)F)c2)cc1` [Compound 497, (R)—N-(4-(hydroxycarbamoyl)benzyl)-2-(hydroxymethyl)-N-(3-(trifluoromethyl)phenyl)pyrrolidine-1-carboxamide], in that order: 936 nM and 2 nM.
For `O=C(NO)c1ccc(CN(C(=O)N2CCC[C@H]2C(F)(F)F)c2cccc(C(F)(F)F)c2)cc1` [Compound 498, (S)—N-(4-(hydroxycarbamoyl)benzyl)-2-(trifluoromethyl)-N-(3-(trifluoromethyl)phenyl)pyrrolidine-1-carboxamide], in that order: 4710 nM and 27 nM.
As to `O=C(NO)c1ccc(CN(C(=O)N2CCOCC2)c2cccc(CO)c2)cc1` [Compound 499, N-(4-(hydroxycarbamoyl)benzyl)-N-(3-(hydroxymethyl)phenyl)morpholine-4-carboxamide], the figures for the IC50 in assay [1] and in assay [2] were 3630 nM and 5 nM, respectively.
Regarding `O=C(NO)c1ccc(CN(C(=O)N2CCOCC2)c2cccc(CF)c2)cc1` [Compound 500, N-(3-(fluoromethyl)phenyl)-N-(4-(hydroxycarbamoyl)benzyl)morpholine-4-carboxamide], the values for the IC50 in assay [1] and in assay [2] were 1000 nM and 3 nM, respectively.
With `O=C(NO)c1ccc(CN(C(=O)N2CCOCC2)c2cccc(-c3ccc4c(c3)OCO4)c2)c(F)c1` [Compound 511, N-(3-(benzo[d][1,3]dioxol-5-yl)phenyl)-N-(2-fluoro-4-(hydroxycarbamoyl)benzyl)morpholine-4-carboxamide], the IC50 in assay [1] was determined as 636 nM; in assay [2] it was 12 nM.
Take `O=C(NO)c1ccc(CN(C(=O)N2CCOCC2)c2cccc(C3=CCOCC3)c2)c(F)c1` [Compound 512, N-(3-(3,6-dihydro-2H-pyran-4-yl)phenyl)-N-(2-fluoro-4-(hydroxycarbamoyl)benzyl)morpholine-4-carboxamide]: the IC50 in assay [1] was 1450 nM; in assay [2], 14 nM.
For the compound `O=C(NO)c1ccc(CN(C(=O)N2CCC(O)CC2)c2cccc(-c3ccc4c(c3)OCO4)c2)c(F)c1` [Compound 513, N-(3-(benzo[d][1,3]dioxol-5-yl)phenyl)-N-(2-fluoro-4-(hydroxycarbamoyl)benzyl)-4-hydroxypiperidine-1-carboxamide], the IC50 in assay [1] is 654 nM; in assay [2], 15 nM.
For `O=C(NO)c1ccc(CN(C(=O)N2CCC(O)CC2)c2cccc(C3=CCOCC3)c2)c(F)c1` [Compound 514, N-(3-(3,6-dihydro-2H-pyran-4-yl)phenyl)-N-(2-fluoro-4-(hydroxycarbamoyl)benzyl)-4-hydroxypiperidine-1-carboxamide], in that order: 1240 nM and 15 nM.
In the same order, the values of `CC(C)(O)CN1CCC(c2cccc(N(Cc3ccc(C(=O)NO)cc3)C(=O)N3CCOCC3)c2)CC1` [Compound 517, N-(3-(1-(2-hydroxy-2-methylpropyl)piperidine-4-yl)phenyl)-N-(4-(hydroxycarbamoyl)benzyl)morpholine-4-carboxamide] are 427 nM and 28 nM.
For `CC(C)(F)CN1CCC(c2cccc(N(Cc3ccc(C(=O)NO)cc3)C(=O)N3CCOCC3)c2)CC1` [Compound 518, N-(3-(1-(2-fluoro-2-methylpropyl)piperidine-4-yl)phenyl)-N-(4-(hydroxycarbamoyl)benzyl)morpholine-4-carboxamide], the IC50 in assay [1] is 495 nM; in assay [2], 14 nM.
For `O=C(NO)c1ccc(CN(C(=O)N2CC[C@@H](F)C2)c2ccc(C(F)(F)F)cc2)cc1` [Compound 520, (R)-3-fluoro-N-(4-(hydroxycarbamoyl)benzyl)-N-(4-(trifluoromethyl)phenyl)pyrrolidine-1-carboxamide], in that order: 1170 nM and 36 nM.
For `O=C(NO)c1ccc(CN(C(=O)N2CC[C@H](F)C2)c2ccc(C(F)(F)F)cc2)cc1` [Compound 521, (S)-3-fluoro-N-(4-(hydroxycarbamoyl)benzyl)-N-(4-(trifluoromethyl)phenyl)pyrrolidine-1-carboxamide], in that order: 261 nM and 10 nM.
`O=C(NO)c1ccc(CN(C(=O)N2CCC[C@@H]2CO)c2ccc(C(F)(F)F)cc2)cc1` [Compound 522, (R)—N-(4-(hydroxycarbamoyl)benzyl)-2-(hydroxymethyl)-N-(4-(trifluoromethyl)phenyl)pyrrolidine-1-carboxamide]: the IC50 in assay [1] was found to be 177 nM; in assay [2] it was 11 nM.
For `CC(=O)N1CCN(C(=O)N(Cc2ccc(C(=O)NO)cc2)c2cccc(F)c2)CC1` [Compound 529, 4-acetyl-N-(3-fluorophenyl)-N-(4-(hydroxycarbamoyl)benzyl)piperazine-1-carboxamide], in that order: 574 nM and 2 nM.
Consider `O=C(NO)c1ccc(CN(C(=O)N2CCOCC2)c2cccc(F)c2)cc1` [Compound 530, N-(3-fluorophenyl)-N-(4-(hydroxycarbamoyl)benzyl)morpholine-4-carboxamide], for which the IC50 in assay [1] was 161 nM; in assay [2], 1.4 nM.
In the same order, the values of `CC(C)(F)CN1CCN(C(=O)N(Cc2ccc(C(=O)NO)cc2)c2cccc(C(F)(F)F)c2)CC1` [Compound 531, 4-(2-fluoro-2-methylpropyl)-N-(4-(hydroxycarbamoyl)benzyl)-N-(3-(trifluoromethyl)phenyl)piperazine-1-carboxamide] are 1820 nM and 5.1 nM.
`O=C(NO)c1ccc(CN(C(=O)N2CCOCC2)c2cccc(C(F)(F)F)c2)c(F)c1` [Compound 532, N-(2-fluoro-4-(hydroxycarbamoyl)benzyl)-N-(3-(trifluoromethyl)phenyl)morpholine-4-carboxamide]: the IC50 is 577 nM in assay [1] and 1.9 nM in assay [2].
For `O=C(NO)c1ccc(CN(C(=O)N2CCOCC2)c2ccc(Cl)cn2)cc1` [Compound 533, N-(5-chloropyridin-2-yl)-N-(4-(hydroxycarbamoyl)benzyl)morpholine-4-carboxamide], in that order: 1890 nM and 4.5 nM.
As for `O=C(NO)c1ccc(CN(C(=O)N2CCN(CCN3CCOCC3)CC2)c2ccc(C(F)(F)F)cc2)cc1` [Compound 543, N-(4-(hydroxycarbamoyl)benzyl)-4-(2-morpholinoethyl)-N-(4-(trifluoromethyl)phenyl)piperazine-1-carboxamide], the IC50 in assay [1] came to 447 nM; in assay [2] it was 9 nM.
`O=C(NO)c1ccc(CN(C(=O)N2CCN(c3ccncc3)CC2)c2ccc(C(F)(F)F)cc2)cc1` [Compound 544, N-(4-(hydroxycarbamoyl)benzyl)-4-(pyridin-4-yl)-N-(4-(trifluoromethyl)phenyl)piperazine-1-carboxamide]: the IC50 in assay [1] was found to be 503 nM; in assay [2], 21 nM.
For `O=C(NO)c1ccc(CN(C(=O)N2CCN(CC(=O)N3CCOCC3)CC2)c2ccc(C(F)(F)F)cc2)cc1` [Compound 545, N-(4-(hydroxycarbamoyl)benzyl)-4-(2-morpholino-2-oxoethyl)-N-(4-(trifluoromethyl)phenyl)piperazine-1-carboxamide], in that order: 545 nM and 17 nM.
